This is an account of results in US6291671A, “Process for producing drug complexes” (Daiichi Pharmaceutical Co., Ltd., priority 1996, dated 2001).

For data set [1], the system named is Meth A tumor-bearing mice. Description: Antitumor activity, Meth A tumor-bearing mice, i.v. every 4 days 4 times. The format is in vivo, mouse. Particulars: Example 11, every 4 days 4 times. The method, then: (§1) Meth A tumor-bearing mice were prepared (7 mice per group) by subcutaneously transplanting 1×10^6 mouse fibrosarcoma Meth A cells into the right inguinal regions of BALB/c male mice (7-week old). On day 7, the drug complex of Example 9 dissolved in distilled water for injection was injected in the tail vein of the Meth A tumor-bearing mice every 4 days 4 times. On day 21 after the transplantation, tumor masses were excised and weighed to calculate the inhibition rate of tumor growth according to the following equation: inhibition rate of tumor growth (%)=[1-(average tumor weight of the group administered with the test sample/average tumor weight of control group)]×100.

The test system of data set [2] is Walker 256 tumor-bearing rats. Description: Releasing rate of spacers judged from efficacy of doxorubicin drug complexes or free doxorubicin at tumorous sites. The format is in vivo, rat. Particulars: for releasing rate of spacer: drug complexes bound with doxorubicin, Walker 256 tumor-bearing rats. The text has this: Specific examples of the spacer are shown in the following table; however, the spacer used for the method for preparing the drug complexes of the present invention is not limited to those mentioned below, and it can be readily understood that one of ordinary skilled in the art can appropriately choose a spacer so as to achieve an optimum releasing rate of a drug compound. In the table, the left ends of peptide sequences are N-terminuses and the residues of drug compounds are bound to C-terminuses.D-Phe represents a D-phenylalanine residue and the other amino acids represent L-amino acids. The degrees of the releasing rate were judged from the degree of appearance of efficacy of the drug complexes bound with doxorubicin against Walker 256 tumor-bearing rats, or from the free doxorubicin concentration at tumorous sites of Walker 256 tumor-bearing rats.

For data set [3], the system named is Meth A tumor-bearing mice. Description: Antitumor activity, Meth A tumor-bearing mice, single administration on day 7. The format is in vivo, mouse. The following applies: for Inhibition rate: calculated based on the drug compound; for antitumor activity (in words) / effective dose-range (in words): single administration, compared to the drug compound, per se. As for the experimental part: as §1
Meth A tumor-bearing mice (6 mice per group) were prepared according to a similar manner to that of Example 11 and the antitumor activity was compared to that obtained by single administration of the drug complexes of Examples 8 and 9 once on day 7.
Meth A tumor-bearing mice (6 mice per group) were prepared according to a similar manner to that of Example 11 and the antitumor activity of the drug complex of Example 15 was examined by single administration in a similar manner to that of Example 12.
Meth A tumor-bearing mice (6 mice per group) were prepared according to a similar manner to that of Example 1, and the antitumor activity of the drug complex of Example 41 was examined in the cases of single administration in a similar manner to that of Example 12, and its antitumor activity was compared to that of the drug compound, per se.
Meth A tumor-bearing mice (6 mice per group) were prepared according to a similar manner to that of Example 11, and the antitumor activity was examined according to a similar method to that in Example 12 by single administration of the drug complexes of Examples 29, 43, and 44, respectively.

Setting [4] is: Example 56 (table 8), 20 mg/kg single.
[5] abbreviates: Example 56 (table 8), 40 mg/kg single.
[6] abbreviates: Example 56 (table 8), 80 mg/kg single.
Setting [7] is: Example 56 (table 8), 100 mg/kg single.

Counter-ions that a name gives are not always drawn. Ends that are not written are not given here. Peptide text beside a SMILES is read from it. * marks the point of attachment. DW‑8089 = (1S,9S)-1-amino-9-ethyl-2,3-dihydro-9-hydroxy-1H,12H-benzo[de]pyrano[3',4':6,7]indolizino[1,2-b]quinoline-10,13(9H,15H)-dione, CC[C@@]1(O)C(=O)OCc2c1cc1n(c2=O)Cc2c-1nc1cccc3c1c2[C@@H](N*)CC3; Exatecan = CC[C@@]1(O)C(=O)OCc2c1cc1n(c2=O)Cc2c-1nc1cc(F)c(C)c3c1c2[C@@H](N*)CC3

With `CC[C@@]1(O)C(=O)OCc2c1cc1n(c2=O)Cc2c-1nc1cc(F)c(C)c3c1c2[C@@H](NC(=O)CNC(=O)[C@H](Cc1ccccc1)NC(=O)CNC(=O)CN)CC3` [H)N-Gly-Gly-Phe-Gly-NH--A, 3'-N-(Gly-Gly-Phe-Gly)-NH--A (A--NH2 =DX-8951) Trifluoroacetic Acid Salt] (H-GGFG-Exatecan), in data set [1], the “antitumor activity (in words)” value is “not effective”.

As to -Ala-Gly-, the “releasing rate of spacer” value in data set [2] is given as “relatively low releasing rate”.

Consider -Gly-Gly-, for which the “releasing rate of spacer” value in data set [2] is listed as “low releasing rate”.

As for -Gly-Gly-Gly-, the “releasing rate of spacer” value in data set [2] is on record as “low releasing rate”.

With “-Gly-Gly-Gly-Gly-: spacer of drug complexes bound with doxorubicin (GGGG; not fully specified; printed as -Gly-Gly-Gly-Gly-; also: spacer between polysaccharide derivative and drug in drug complex)”, in data set [2], the “releasing rate of spacer” value was “low releasing rate”.

For “-Gly-Gly-Gly-Gly-Gly-Gly-: spacer of drug complexes bound with doxorubicin”, the “releasing rate of spacer” value in data set [2] is listed as “relatively high releasing rate”.

Consider “-Gly-Gly-Gly-Phe-: spacer of drug complexes bound with doxorubicin (GGGF; not fully specified; printed as -Gly-Gly-Gly-Phe-; also: spacer between polysaccharide derivative and drug in drug complex)”, for which the “releasing rate of spacer” value in data set [2] is given as “relatively low releasing rate”.

As to “-Gly-Gly-Gly-Phe-Gly-: spacer of drug complexes bound with doxorubicin (GGGFG; not fully specified; printed as -Gly-Gly-Gly-Phe-Gly-; also: spacer between polysaccharide derivative and drug in drug complex)”, in data set [2], the “releasing rate of spacer” value is reported as “high releasing rate”.

In the case of “-Gly-Gly-Phe-Gly-: spacer of drug complexes bound with doxorubicin (GGFG; not fully specified; printed as -Gly-Gly-Phe-Gly-; also: spacer between polysaccharide derivative and drug in drug complex)”, in data set [2], the “releasing rate of spacer” value is on record as “high releasing rate”. Besides, the “release of the drug compound (in words)” value in data set [2] (spacer for doxorubicin) is reported as “can release the drug compound at high concentration in a short time”.

On to “-Gly-Gly-Phe-Phe-: spacer of drug complexes bound with doxorubicin (GGFF; not fully specified; printed as -Gly-Gly-Phe-Phe-; also: spacer between polysaccharide derivative and drug in drug complex)”, for which, in data set [2], the “releasing rate of spacer” value is on record as “relatively high releasing rate”.

For the molecule -Gly-Phe-, in data set [2], the “releasing rate of spacer” value was “low releasing rate”.

As to “-Gly-Phe-Gly-Gly-: spacer of drug complexes bound with doxorubicin (GFGG; not fully specified; printed as -Gly-Phe-Gly-Gly-; also: spacer between polysaccharide derivative and drug in drug complex)”, the “releasing rate of spacer” value in data set [2] was “high releasing rate”.

Take -Leu-Gly-: in data set [2], the “releasing rate of spacer” value was “high releasing rate”.

With -Phe-Gly-, the “releasing rate of spacer” value in data set [2] was “high releasing rate”.

In the case of “-Phe-Gly-Gly-Gly-: spacer of drug complexes bound with doxorubicin (FGGG; not fully specified; printed as -Phe-Gly-Gly-Gly-; also: spacer between polysaccharide derivative and drug in drug complex)”, the “releasing rate of spacer” value in data set [2] is listed as “high releasing rate”.

Turning to -Phe-Phe-, the “releasing rate of spacer” value in data set [2] is recorded as “relatively low releasing rate”.

For the molecule “-Phe-Phe-Gly-Gly-: spacer of drug complexes bound with doxorubicin (FFGG; not fully specified; printed as -Phe-Phe-Gly-Gly-; also: spacer between polysaccharide derivative and drug in drug complex)”, the “releasing rate of spacer” value in data set [2] was “high releasing rate”.

For the molecule -Pro-Gly-, the “releasing rate of spacer” value in data set [2] is listed as “relatively low releasing rate”.

Regarding -Ser-Gly-, the “releasing rate of spacer” value in data set [2] was “low releasing rate”.

As for -Tyr-Gly-, in data set [2], the “releasing rate of spacer” value was “high releasing rate”.

“Carboxymethyldextran Polyalcohol-Gly-Gly-Gly-Phe-NH--A' (A--NH2 =)X-8951) ({carboxymethyldextran polyalcohol}-GGGF-Exatecan; also: N-terminus linked to carboxymethyldextran polyalcohol, C-terminus amide-linked to drug residue A' (DX-8951)) [Example 43]”: the Inhibition rate is 75% in data set [3] (setting [4]), 82% in data set [3] (setting [5]), 92% in data set [3] (setting [6]) and 94% in data set [3] (setting [7]). The “antitumor activity (in words)” value in data set [3] was “high antitumor activity”. The “effective dose-range (in words)” value in data set [3] was “broader effective dose-range”.

Regarding “Carboxymethyldextran Polyalcohol-Gly-Gly-Gly-Phe-NH--A' (A--NH2 =DX-8951) [Example 8] ({carboxymethyldextran polyalcohol}-GGGF-Exatecan; also: N-terminus linked to carboxymethyldextran polyalcohol, C-terminus amide-linked to drug residue A' (DX-8951))”, the Inhibition rate in data set [3] (Example 12 (Table 3), 5 mg/kg single) was 76%; in data set [3] (Example 12 (Table 3), 10 mg/kg single), 85%. Besides, in data set [3], the “antitumor activity (in words)” value was “(Polysaccharide derivative)-Gly-Gly-Gly-Phe-NH--A'> the drug compound, per se”.

For “Carboxymethyldextran Polyalcohol-Gly-Gly-Gly-Phe-NH--A' (A--NH2 =DX-8951) [Example 29] ({carboxymethyldextran polyalcohol}-GGGF-Exatecan; also: N-terminus linked to carboxymethyldextran polyalcohol, C-terminus amide-linked to drug residue A' (DX-8951))”, the Inhibition rate in data set [3] (Example 56 (table 8), 5 mg/kg single) is 79%; in data set [3] (Example 56 (table 8), 10 mg/kg single), 89%; in data set [3] (setting [4]), 99%; in data set [3] (Example 56 (table 8), 30 mg/kg single), 99%. Also, the “antitumor activity (in words)” value in data set [3] is reported as “high antitumor activity”. For the same molecule, the “effective dose-range (in words)” value in data set [3] is recorded as “broader effective dose-range”.

In the case of “Carboxymethyldextran Polyalcohol-Gly-Gly-Phe-Gly-NH--A' (A--NH2 =DW-8089) ({carboxymethyldextran polyalcohol}-GGFG-{DW‑8089}; also: N-terminus linked to carboxymethyldextran polyalcohol, C-terminus amide-linked to drug residue A' (DW-8089)) [Example 41]”, the Inhibition rate in data set [3] (Example 55 (table 7), 3.125 mg/kg single) is 61%; in data set [3] (Example 55 (table 7), 6.25 mg/kg single), 81%; in data set [3] (Example 55 (table 7), 12.5 mg/kg single) it was 95%; in data set [3] (Example 55 (table 7), 25 mg/kg single), 99%. The “antitumor activity (in words)” value in data set [3] is recorded as “remarkably enhanced antitumor activity”. The “effective dose-range (in words)” value in data set [3] was “broader effective dose-range”.

For “α-methylcarboxymethyldextran Polyalcohol-Gly-Gly-Gly-Phe-NH--A' (A--NH2 =DX-8951) [Example 44]”, the Inhibition rate in data set [3] (setting [4]) was 75%; in data set [3] (setting [5]), 97%; in data set [3] (setting [6]) it was 94%; in data set [3] (setting [7]), 96%. Besides, the “antitumor activity (in words)” value in data set [3] is given as “high antitumor activity”. For the same molecule, the “effective dose-range (in words)” value in data set [3] is “broader effective dose-range”.
